According to patent US8216580B2, “Sulfatases and methods of use thereof” (The Regents of the University of California, priority 2000, dated 2012):

Key:
[1] = Arylsulfatase activity assay with 4-MUS substrate; assay type: biochemical
Method: The 100-fold concentrated conditioned medium (CM) derived from each transfection of CHO cells as described above was dialyzed into 50 mM HEPES, pH 8.0. The His-tagged fusion proteins were bound to a Ni-NTA resin (QIAGEN) by rotation at 4° C. over night, then washed with 50 mM HEPES (pH 8.0), 3 times. 250 mM imidazole in 50 mM HEPES, pH 8.0 was used to elute the His-tagged fusion proteins from Ni-NTA. The resins with boud material or the eluates were mixed with 10 mM 4-methylumbelliferyl-sulfate (4-MUS; a substrate for sulfatases), and 10 mM lead acetate, in a total volume of 100 μl. The reaction mixtures were incubated at 37° C. for various periods of time. Reactions were terminated by the addition of 100 μl of 0.5 M Na2CO3/NaHCO3, pH 10.7 to 20 μl of the reaction mixture. The fluorescence of 4-methylumbelliferone was measured on a Multi-Well Plate Reader CytoFluorII (PerSeptive Biosystems). The fluorescence was determined at an excitation wavelength of 360 nm and emission wavelength of 460 nm. A substrate dose response curve was performed over the concentration range of 1 to 10 mM 4-MUS.
The synthetic fluorogenic compound 4-methylumbelliferyl sulfate (4-MUS) serves as a substrate for most sulfatases, both in the lysosomal and non-lysosomal classes. CHO cells were transfected with a cDNA for HSulf-1 or HSulf-2 or a vector control. Conditioned medium was collected and incubated with nickel resin (Ni-NTA) to bind the His-tagged recombinant proteins. The bead-bound material was assayed for activity on 4-MUS. For both enzymes, hydrolysis depended on time of reaction (FIG. 15A), concentration of substrate (FIG. 15B), and amount of CM (FIG. 15C). From the substrate dose-response curves of FIG. 15B and based on estimates of Sulf protein levels in CM, we approximated Vmax for the two Sulfs to be in the range of 1000-2000 nmol per min per mg of Sulf protein. Human glucosamine-6-sulfatase has a considerably lower Vmax against 4-MUS ([…]) whereas the Vmax of human N-acetylgalactosamine-4-sulfatase (arylsulfatase B) is much higher (48000).
HSulf-1, HSulf-2 or their mutated forms (HSulf-1 ΔCC and HSulf-2 ΔCC) was purified from the conditioned medium of transfected CHO cells by binding to Ni-NTA beads. A) The bead-bound material was tested for arylsulfatase activity as a function of time against 10 mM 4-MUS substrate at pH 8. The “no-enzyme” control was based on testing conditioned medium from vector-control transfected CHO cells. No activity was detected in the absence of added substrate (not shown). […] The activity of each Sulf was determined relative to that of beads exposed to an equivalent volume of vector-control conditioned medium. The activity of HG6S was determined (24 hr incubation) relative to that of the buffer. […]

[2] = test system: Wnt signaling; test: TCF-luciferase (TOPFlash/FOPFlash) Wnt reporter assay in pancreatic adenocarcinoma cell lines; assay type: cell-based, human; settings: for Wnt activity: 16 hours with conditioned medium of HEK 293 clones
Method: Cells were plated in 24 well plates and transfected with either 0.3 μg TOPFlash or FOPFlash and 0.01 μg Renilla control plasmid (Promega) using Fugene (Roche) according to the manufacturer's procedure. After 48 hours cells were lysed and analyzed utilizing the Dual Luciferase Reporter Assay system (Promega). Luciferase activity was normalized to control Renilla activity.
To search for evidence that endogenous expressed sulfatases in pancreatic adenocarcinoma cell lines regulate Wnt signaling, the method of gene silencing was used. An antisense cDNA against both sulfatases was transiently transfected into four different cell lines. As a control, cells were transfected with a MMP-9 antisense cDNA. Wnt signaling was quantified by TCF-luciferase activity.
HSulf-1 DCC and HSulf-2 DCC mutants are as follows: 1) cysteines 87 and 88 of HSulf-1 (designated as HSulf-1 ΔCC or HSulf-1 DCC) were changed to alanines; and cysteines 88 and 89 of HSulf-2 (designated as HSulf-2 ΔCC or HSulf-2 DCC) were changed to alanines (see Example 9, above).
The effect of conditioned medium derived from the HEK 293 cell lines on Wnt signaling was determined. Pancreatic adenocarcinoma cells were incubated for 16 hours with conditioned medium derived from the described HEK 293 clones; and the TOP/FOPflash system was used to quantify Wnt signaling.
In order to compare proliferation of BxPC3 sil413 cells and mock transfected BxPC3 cells in vitro, GFP+ (HSulf-2 positive) and GFP− (HSulf-2 negative) cells were co-cultured; and the ratio of GFP+ to GFP− cells was followed over time. […] Additionally, using sorted BxPC3 si1413 cells we examined proliferation performing BrdU incorporation experiments (FIG. 21D).

[3] = test system: pancreatic adenocarcinoma cell lines; test: Transwell co-culture proliferation (cell counts) with HEK 293 feeder layer; assay type: cell-based, human; settings: exogenous protein from 293 feeder layer
Method: Co-culture experiments were performed in transwell plates with 24-well inserts with 5 μm polycarbonate membrane pore size (Corning Incorporated). HEK 293 cells were plated in the wells as feeder layer and one day later 1-2×10^3 cells of the pancreatic adenocarcinoma cell lines were plated in the inserts. Cells were grown in DMEM supplemented with 10% fetal calf serum.
293 cells expressing either HSulf-2, HSulf-2-DCC, parental 293 or only medium alone were used as feeder layer; and pancreatic adenocarcinoma lines were grown on transwell filters. Subsequently, cell counts were followed over time.

In the case of “HSulf-2: Human SULF2, an 870 amino acid sulfatase protein, SEQ ID NO:06; expressed with C-terminal Myc-His tag”, the sulfatase activity ([1]; His-tagged fusion proteins from CHO conditioned medium, 10 mM 4-MUS, 37° C.) was “Time-dependent sulfatase activity was detected”.
In the case of “HSulf-2 ΔCC: catalytically inactive HSulf-2, cysteines 88 and 89 mutated to alanines (CC88, 89AA)”, the “arylsulfatase activity of cysteine-to-alanine mutants” value ([1]; 4-MUS, pH 8, 2 hr, mutant protein levels in CM equivalent to wild-type) was “Lack of the activity”, the Wnt activity ([2]; CFPAC-1 cells) was “did no respond” and the Wnt activity ([2]; cell lines inhibited in proliferation) was “significant decrease”. The “inhibition of Wnt signaling (TCF-luciferase activity)” value ([2]; transient transfection, in three of the four examined pancreatic adenocarcinoma cell lines) was “about 50%”, the “proliferation (cell counts over time)” value ([3]; BxPC-3, HS766T and L3.6sl cells) was “inhibited” and the “proliferation (cell counts over time)” value ([3]; CFPAC-1 cells) was “did not show any response”.
